# Test results: PubChem BioAssay (NCI)
#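 Cultured in 96-well plates, cells were exposed to test compound for 48 hours across five concentrations. GI50 marks 50% less growth. At the TGI there is no net growth.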
# What was measured:
# Assay in all cases: growth of human tumour cells (NCI), 48 h
# NCI-H460 lung = test system: NCI-H460 lung
# EKVX NSCLC = test system: EKVX NSCLC
# SNB-75 CNS = test system: SNB-75 CNS
# MCF7 breast = test system: MCF7 breast
# KM12 colon = test system: KM12 colon
# HCT-116 colon = test system: HCT-116 colon
# OVCAR-3 ovarian = test system: OVCAR-3 ovarian
# OVCAR-5 ovarian = test system: OVCAR-5 ovarian
# K-562 leukemia = test system: K-562 leukemia
SMILES,TGI (NCI-H460 lung) [µM],TGI (EKVX NSCLC) [µM],TGI (SNB-75 CNS) [µM],TGI (MCF7 breast) [µM],TGI (KM12 colon) [µM],TGI (HCT-116 colon) [µM],TGI (OVCAR-3 ovarian) [µM],TGI (OVCAR-5 ovarian) [µM],TGI (K-562 leukemia) [µM],GI50 (SNB-75 CNS) [µM],GI50 (K-562 leukemia) [µM],GI50 (MCF7 breast) [µM],GI50 (HCT-116 colon) [µM],GI50 (OVCAR-5 ovarian) [µM],GI50 (NCI-H460 lung) [µM],GI50 (EKVX NSCLC) [µM],GI50 (KM12 colon) [µM],GI50 (OVCAR-3 ovarian) [µM]
COc1ccc(/C=C2\S/C(=N/Nc3nc(-c4ccccc4)cs3)NC2=O)cc1OC,> 100,98.4,64.4,> 100,82.2,41.6,55.8,> 100,,,,,,,,,,
Cc1cn(Cc2cnnn2CC2OC(n3cc(C)c(=O)[nH]c3=O)CC2O)c(=O)[nH]c1=O (stereo not drawn),,> 100,,> 100,> 100,> 100,> 100,> 100,,,,,,,,,,
COC(=O)C(CSSC[C@H](N/C(C)=C/C(C)=O)C(=O)OC)N/C(C)=C/C(C)=O (stereo partly drawn),> 100,41.4,> 100,88.6,> 100,> 100,88.9,39.2,> 100,,,,,,,,,
c1cn(C23C4C5C6C4C2C6C53)cn1 (stereo not drawn),> 100,> 100,> 100,> 100,> 100,> 100,,> 100,> 100,,,,,,,,,
O=C(c1cc(Cl)ccc1Cl)N1CCN(C(=O)c2cc(Cl)ccc2Cl)CC1,> 100,> 100,> 100,> 100,> 100,> 100,> 100,> 100,> 100,,,,,,,,,
O=C(Nc1ccccc1)N(CCCCN(Cc1ccccc1)C(=O)Nc1ccccc1)Cc1ccccc1,> 100,> 100,> 100,> 100,> 100,> 100,> 100,> 100,> 100,,,,,,,,,
COC1OC2COC1(OC)C1OC(C)(C)OC21 (stereo not drawn),> 100,> 100,> 100,> 100,> 100,> 100,> 100,> 100,> 100,,,,,,,,,
N#Cc1c(-c2ccc(Cl)cc2)c2c(n(C3OC(CO)C(O)C(O)C3O)c1=S)CCC2 (stereo not drawn),> 100,,76.3,40.9,> 100,98.4,74.3,> 100,38.5,,,,,,,,,
O=c1c2cc(I)ccc2nc(-c2cccs2)n1-c1ccc(O)cc1,52.6,33.4,,32.8,25.1,27.4,21.8,30.2,> 100,,,,,,,,,
COc1ccc(C(=O)/C=C/c2c(Cl)c3c(c(OC)c2Cl)OCC(=O)N3)cc1,,,9.71,> 100,,2.87,,> 100,7.73,2.23,1.85,2.32,1.43,3.86,,,,
CCN(C(=S)N[C@H](C(=O)N[C@@H](C)C(=O)OC)C(C)C)c1ccccc1,> 100,> 100,,> 100,> 100,> 100,> 100,> 100,80.2,,,,,,,,,
COc1ccc2nc3cc([N+](=O)[O-])ccc3c(Nc3ccc(S(=O)(=O)NC(C)=O)cc3)c2c1,> 100,> 100,,> 100,,> 100,> 100,> 100,> 100,,,,,,,,,
CCN(CC)c1ccc2cc(C(=O)Nc3cccc4ccccc34)c(=N)oc2c1,> 100,> 100,> 100,> 100,> 100,> 100,,> 100,> 100,,,,,,,,,
C[C@H]1C[C@H]2[C@@H]3C(C)(C)O[C@]4(O)C(=O)[C@]5(O)[C@@H](C)CC[C@H]1[C@]25C(=O)[C@]34C,> 100,,,> 100,99.7,> 100,68.1,> 100,> 100,,,,,,,,,
COC(=O)c1c(O)ccc2c1c1c(n2Cc2cccc(C)c2)C(=O)c2ccccc2C1=O,16.7,37.9,,20.2,28,20.2,22.8,52.7,35,,,,,,,,,
COc1ccc(-c2cc(-c3ccc(Nc4ccnc5cc(Cl)ccc45)cc3)[nH]c(=O)c2C#N)c2ccccc12,> 100,> 100,95.4,,> 100,,5.34,> 100,6.35,,,,,,,,,
CCOc1cc(C2CC(c3ccc(NS(=O)(=O)c4cc([N+](=O)[O-])ccc4C)cc3)=NN2c2ccc([N+](=O)[O-])cc2[N+](=O)[O-])ccc1O (stereo not drawn),,22,35.3,42.1,> 100,26.1,29,60.3,> 100,,,,,,,,,

SMILES,TGI (NCI-H460 lung) [µM],TGI (EKVX NSCLC) [µM],TGI (SNB-75 CNS) [µM],TGI (MCF7 breast) [µM],TGI (KM12 colon) [µM],TGI (HCT-116 colon) [µM],TGI (OVCAR-3 ovarian) [µM],TGI (OVCAR-5 ovarian) [µM],TGI (K-562 leukemia) [µM],GI50 (SNB-75 CNS) [µM],GI50 (K-562 leukemia) [µM],GI50 (MCF7 breast) [µM],GI50 (HCT-116 colon) [µM],GI50 (OVCAR-5 ovarian) [µM],GI50 (NCI-H460 lung) [µM],GI50 (EKVX NSCLC) [µM],GI50 (KM12 colon) [µM],GI50 (OVCAR-3 ovarian) [µM]
O=C1c2cc3c(cc2CC12Cc1ccc4c(c1C2=O)CCCC4)CCCC3 (stereo not drawn),> 100,> 100,> 100,> 100,,> 100,> 100,> 100,> 100,,,,,,,,,
CC1(C)CC(=O)c2c(nc3ccc4ccccc4c3c2-c2ccc(NC(=O)CCCCCCCCC(=O)Nc3ccc(-c4c5c(nc6ccc7ccccc7c46)CC(C)(C)CC5=O)cc3)cc2)C1,> 100,> 100,,> 100,> 100,> 100,> 100,> 100,> 100,,,,,,,,,
COc1ccc(-c2c(C#N)c(S)n(NS(=O)(=O)c3ccc(C)cc3)c(=O)c2C#N)cc1,> 100,68.3,> 100,> 100,77.5,28,,60.7,47.2,,,,,,,,,
O=C(Cn1c(C(=O)/C=C/c2cccs2)nc2ccccc21)c1ccc(Cl)cc1,25.8,,> 100,48.4,46.6,39.5,57.3,> 100,45.7,,,,,,,,,
COc1ccc(-c2cc(-c3cc4cc(Br)ccc4nc3Cl)c(C#N)c(N)n2)cc1,,> 12.5,> 12.5,> 12.5,> 12.5,> 12.5,> 12.5,> 12.5,> 12.5,,,,,,,,,
CCOC(=O)C(NC(=O)CC)(Nc1cc(C)on1)C(F)(F)F (stereo not drawn),,> 100,> 100,,,> 100,,> 100,> 100,,,,,,,,,
COc1ccccc1NC(=O)CC(=O)N1N=C(C)C(N=Nc2ccc(C(=O)O)cc2)C1=O (stereo not drawn),,> 100,6.06,> 100,> 100,> 100,> 100,> 100,> 100,,,,,,,,,
NNC(=O)Cn1c2ccc(Br)cc2c2nc3ccccc3nc21,,> 100,> 100,> 100,> 100,,> 100,> 100,> 100,,,,,,,,,
C/C(Nc1ccc(F)cc1)=C1/CCOC1=O,> 100,> 100,> 100,,> 100,> 100,> 100,,> 100,,,,,,,,,
Oc1c([Si](c2ccccc2)(c2ccccc2)c2ccccc2)cc2ccccc2c1-c1c(O)c([Si](c2ccccc2)(c2ccccc2)c2ccccc2)cc2ccccc12,> 100,> 100,> 100,> 100,> 100,,,> 100,> 100,,,,,,,,,
CCOC(=O)c1cc2c3c(c(C(C)=O)c(O)c2[nH]1)N(CC(C)CC)CC3 (stereo not drawn),> 100,> 100,> 100,> 100,> 100,> 100,,,> 100,,,,,,,,,
CCCC(=O)NC(Nc1ccc(S(=O)(=O)Nc2nc(C)cc(C)n2)cc1)(C(F)(F)F)C(F)(F)F,> 100,> 100,> 100,,> 100,> 100,> 100,> 100,> 100,,,,,,,,,
CC1=NN(c2nc(N)nc(/C(C#N)=C/c3cccn3-c3cc(Cl)cc(Cl)c3)n2)C(C)(C)C1,> 100,> 100,99.7,> 100,> 100,> 100,> 100,> 100,,,,,,,,,,
CN(C)c1nc2oc(-c3ccccc3)c(-c3ccccc3)c2c2nnnn12,,> 100,> 100,> 100,> 100,> 100,,> 100,> 100,,,,,,,,,
CCCCCC(C)SC1(C(=O)OC)CC(OC(C)=O)C(NC(C)=O)C([C@H](OC(C)=O)[C@@H](COC(C)=O)OC(C)=O)O1 (stereo partly drawn),> 100,,> 100,> 100,> 100,> 100,> 100,> 100,> 100,,,,,,,,,
CC1(C)C2C=CC1(C)C1(CC2)OCCO1 (stereo not drawn),> 100,,> 100,> 100,> 100,> 100,> 100,> 100,> 100,,,,,,,,,
C[C@@H]1CC[C@H]2C(C(O)CCCCC(O)C3=C(C(F)(F)F)O[C@@H]4O[C@@]5(C)CC[C@H]6[C@H](C)CC[C@@H]3[C@@]46OO5)=C(C(F)(F)F)O[C@@H]3O[C@@]4(C)CC[C@@H]1[C@]32OO4 (stereo partly drawn),> 100,> 100,> 100,> 100,> 100,> 100,> 100,,> 100,42.4,16.2,5.01,7.17,,15.3,31.9,4.71,7.26
